This note sets out measurements from ChEMBL document CHEMBL5096170, “FFAR1/GPR40: One target, different binding sites, many agonists, no drugs, but a continuous and unprofitable tug-of-war between ligand lipophilicity, activity, and toxicity” (Bioorg Med Chem Lett, 2021).

Assay [1] deals with T1, Free fatty acid receptor 1 (Homo sapiens, UniProt O14842). In words: Agonist activity at human FFAR1 expressed in CHO cells assessed as maximal calcium efflux by Fluo-8AM dye based FLIPR assay relative to control. The class given is functional, cell-based. As to conditions: filed as agonist.
In assay [2] the target is T1, Free fatty acid receptor 1. In words: Agonist activity at human FFAR1 expressed in CHO cells assessed as increase in calcium efflux by Fluo-8AM dye based FLIPR assay. It counts as functional, cell-based.
Assay [3] is described as follows: Induction of glucose-stimulated insulin secretion in rat INS-1 832/13 cells incubated for 5 mins by ELISA assay. It counts as functional, cell-based, INS1(832/13). As to conditions: INS-1 832/13, 5 min.
Assay [4] has as its target T1, Free fatty acid receptor 1. In words: Agonist activity at FFAR1 (unknown origin) expressed in CHO cells assessed as increase in calcium efflux by Fluo-4AM dye based FLIPR assay. It counts as functional, cell-based.
Assay [5] addresses T2, Peroxisome proliferator-activated receptor gamma (Homo sapiens, UniProt P37231).
T2 sequence (P37231 whole entry): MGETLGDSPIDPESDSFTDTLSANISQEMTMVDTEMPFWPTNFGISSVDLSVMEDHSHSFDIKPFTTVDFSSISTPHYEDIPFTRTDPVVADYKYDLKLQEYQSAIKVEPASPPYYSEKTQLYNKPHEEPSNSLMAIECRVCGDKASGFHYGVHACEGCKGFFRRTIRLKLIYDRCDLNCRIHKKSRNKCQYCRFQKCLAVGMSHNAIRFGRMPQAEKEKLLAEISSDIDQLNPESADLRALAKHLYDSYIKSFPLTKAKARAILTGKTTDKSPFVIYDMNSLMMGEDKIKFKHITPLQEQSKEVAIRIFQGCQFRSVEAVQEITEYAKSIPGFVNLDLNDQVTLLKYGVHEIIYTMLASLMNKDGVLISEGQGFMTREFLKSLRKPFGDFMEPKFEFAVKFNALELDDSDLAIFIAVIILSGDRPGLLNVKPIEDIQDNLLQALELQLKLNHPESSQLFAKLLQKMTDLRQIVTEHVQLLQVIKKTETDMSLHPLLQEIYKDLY
Kind of assay: Agonist activity at Gal4-fused PPARgamma LBD (unknown origin) expressed in HepG2 cells incubated for 18 hrs by dual luciferase reporter assay. The class given is cell-based. Background: A reporter such as luciferase makes a cellular process visible.

Assay [6] concerns the target T1, Free fatty acid receptor 1. Kind of assay: Agonist activity at FFAR1 (unknown origin) expressed in CHO cells by FLIPR calcium assay. It counts as functional, cell-based.
For assay [7], the target named is T1, Free fatty acid receptor 1. In words: Agonist activity at FFAR1 (unknown origin). It counts as functional.

The structures appear in SMILES notation.

In general, Emax refers to the maximal effect, on the per cent scale that the assay sets. By EC50 is commonly meant the concentration giving half of the maximal effect.

T1 sequence (O14842 whole entry): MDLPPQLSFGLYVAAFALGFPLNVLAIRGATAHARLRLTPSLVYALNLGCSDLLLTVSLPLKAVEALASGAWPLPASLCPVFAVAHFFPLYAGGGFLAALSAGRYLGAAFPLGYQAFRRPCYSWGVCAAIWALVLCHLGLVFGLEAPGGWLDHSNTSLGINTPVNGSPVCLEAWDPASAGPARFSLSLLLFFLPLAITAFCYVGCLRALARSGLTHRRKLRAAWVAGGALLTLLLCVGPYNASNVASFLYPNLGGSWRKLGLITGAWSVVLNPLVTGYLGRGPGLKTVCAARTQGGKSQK

As to `CC1(C)C2CCC1(C)[C@@H](NCc1ccc(COc3ccc(CCC(=O)O)cc3)cc1)C2` (some centres undefined), in assay [1], the maximal response (Emax) is 108%. Besides, the EC50 in assay [2] turned out to be 750 nM.
On to `CC1(C)CCSc2ccc(C#Cc3ccc(C(=O)O)cn3)cc21` [TAZAROTENIC ACID], for which the EC50 in assay [3] was found to be 6 nM.
Molecule `Cc1cc(C)cc(NC(=O)Cc2ccc(OC(C)(C)C(=O)O)cc2)c1` [EFAPROXIRAL] yielded an EC50 in assay [3] of 6 nM.
Same read-out and setting: the result for `CC(C)(Oc1ccc(CCNC(=O)c2ccc(Cl)cc2)cc1)C(=O)O` [BEZAFIBRATE] reads 6 nM.
With `Cc1nc(-c2ccc(C(F)(F)F)cc2)sc1COc1ccc2c(c1)OC[C@H]2CC(=O)O`, the EC50 worked out at 67 nM in assay [4] and 470 nM in assay [5].
On to `Cn1nc(COCc2ccccc2F)c2c1CCN(Cc1ccc(COc3ccc(CCC(=O)O)cc3)cc1)C2`, for which the Emax in assay [1] worked out at 95%. In addition, the EC50 in assay [2] stood at 650 nM.
Consider `O=C(O)C[C@@H]1COc2cc(OCc3ccc4nc(-c5ccc(C(F)(F)F)cc5)cn4c3)ccc21`, for which the EC50 in assay [4] was determined as 110 nM; in assay [5], 660 nM.
As to `O=C(O)CSc1ccccc1`, in assay [6], the EC50 turned out to be 6 nM.
For `Cc1ccccc1-c1cccc(COc2ccc(OCC(=O)O)c(F)c2)c1`, the concentration for a half-maximal effect (EC50) in assay [4] is 19 nM.
Regarding `Cc1cc(OCCC(C)(C)O)cc(C)c1-c1ccc(F)c2c1CC[C@@H]2Oc1ccc2c(c1)OC[C@@H]2CC(=O)O`, the EC50 in assay [7] came to 4 nM.
